The values below come from patent US7388003B2, “Δ15-D-Homosteroids with androgenic action” (Bayer Schering Pharma AG, priority 2003, dated 2008).

SMILES strings stand for the structures.

Test [1] has as its target T1, Androgen Receptor (Homo sapiens, UniProt P10275).
T1 sequence (P10275 1-920): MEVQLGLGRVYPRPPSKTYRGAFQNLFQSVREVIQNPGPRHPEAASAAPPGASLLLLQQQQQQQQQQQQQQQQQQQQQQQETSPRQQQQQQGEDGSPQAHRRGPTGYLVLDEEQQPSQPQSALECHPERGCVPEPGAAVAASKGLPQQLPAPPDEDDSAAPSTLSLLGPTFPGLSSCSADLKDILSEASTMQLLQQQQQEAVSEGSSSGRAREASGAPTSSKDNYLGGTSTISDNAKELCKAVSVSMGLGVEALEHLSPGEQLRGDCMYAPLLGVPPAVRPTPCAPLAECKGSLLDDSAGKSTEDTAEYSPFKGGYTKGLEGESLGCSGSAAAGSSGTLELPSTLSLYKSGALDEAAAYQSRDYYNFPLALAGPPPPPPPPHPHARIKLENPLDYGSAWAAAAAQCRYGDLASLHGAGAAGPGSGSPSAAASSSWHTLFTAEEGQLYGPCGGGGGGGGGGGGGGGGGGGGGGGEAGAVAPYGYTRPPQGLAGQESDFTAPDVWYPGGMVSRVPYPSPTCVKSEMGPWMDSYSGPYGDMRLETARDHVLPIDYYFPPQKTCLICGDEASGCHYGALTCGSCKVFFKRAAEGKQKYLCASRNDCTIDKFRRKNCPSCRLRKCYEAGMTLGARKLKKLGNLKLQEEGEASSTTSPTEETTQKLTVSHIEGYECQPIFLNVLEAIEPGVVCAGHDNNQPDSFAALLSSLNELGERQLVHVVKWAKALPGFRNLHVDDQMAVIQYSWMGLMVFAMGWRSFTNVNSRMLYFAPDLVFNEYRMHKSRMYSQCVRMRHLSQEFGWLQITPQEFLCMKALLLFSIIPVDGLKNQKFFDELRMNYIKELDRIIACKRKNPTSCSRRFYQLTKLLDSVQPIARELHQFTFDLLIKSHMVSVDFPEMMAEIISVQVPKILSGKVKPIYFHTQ
Nature of the test: Receptor binding affinity to the androgen receptor (reference DHT=100%).

For test [2], the target named is T1, Androgen Receptor. Nature of the test: Relative binding affinities (RBA) to the androgen receptor compared to testosterone and methyltrienolone. The note with it: relative binding affinity to the androgen receptor; R 1881 (Methyltrienolone) = 100.

Consider `CC1CC2=CC(=O)CCC2C2CCC3(C)C(O)C=CCC3C12` [17aβ-Hydroxy-7α-methyl-D-homoestra-4,16-dien-3-one], for which the “receptor binding affinity to the androgen receptor” value on Androgen Receptor [1] came to 2%. On Androgen Receptor [2], `CC12CCC3C4CCC(=O)C=C4CCC3C1C=CCC2O` [Example 1, 17aβ-Hydroxy-D-homoestra-4,15-dien-3-one] yielded an RBA % of 25%. Still for that read-out and setting: the same measure for `CC12CCC(=O)C=C1CCC1C2CCC2(C)C(O)CC=CC12` [Example 2, 17aβ-Hydroxy-D-homoandrost-4,15-dien-3-one]: 12%.

As to `C[C@]1(O)CC[C@H]2[C@@H]3CCC4=CC(=O)CCC4=C3C=C[C@@]21C` [R 1881 (Methyltrienolone), Methyltrienolone], the RBA % at Androgen Receptor [2] came out at 100%.
